The values that follow are results of earlier work, collected in patent US8217079B2 (priority 2010, dated 2012).

For this data set, the system named is PVR-1 gene expression. To be noted: sub-micromolar concentrations; peripheral blood of JAK2^V617F PV patients; cited from earlier work.

For `CCN(CC)Cc1ccc2cc(COC(=O)Nc3ccc(C(=O)NO)cc3)ccc2c1.Cl` [ITF2357, Diethyl-[6-(4-hydroxycarbamoyl-phenylcarbamoyloxymethyl)-naphthalen-2-ylmethyl]-ammonium chloride], the “PVR-1 gene expression in granulocytes” value was “down-modulate”.
